Measurements as given in patent publication US20240018157A1, “CYCLIC COMPOUNDS AND METHODS OF USING SAME” (Schrödinger, Inc., priority 2019, published 2024).

Columns and labels:
[1] = biological target: T1, full-length MALT1 protein His-MALT1(1-824) (Homo sapiens (Human), UniProt Q9UDY8); assay: MALT1 protease assay, Assay 1 (2 nM MALT1, Ac-LRSR-AMC substrate); format: biochemical; details: 2 nM MALT1, 50 μM Ac-LRSR-AMC, 2 h pre-incubation, 8 hr incubation at RT
Experimental: MALT1 protease activity was assessed in an in vitro assay using a tetrapeptide as substrate and full-length MALT1 protein His-MALT1(1-824) purified from baculovirus-infected insect cells.
The final assay buffer includes 1 nM (Assay 2) or 2 nM (Assay 1) of MALT1 full-length protein, 50 μM Ac-LRSR-AMC substrate, 50 mM Tris pH 7.5, 600 mM Sodium Citrate, 1 mM DTT, 1 mM EDTA, and 0.05% BSA in 384-well plate format using black microtiter square well plates (Optiplate 384-F, Perkin Elmer).
Test compounds were dissolved in 100% DMSO at stock of 10 mM, with final DMSO concentration 0.1%. Test compounds were pre-incubated with MALT1 protein for 2 h at room temperature. Substrate was added after the pre-incubation and fluorescence signal was measured using Envision at excitation 355 nm and emission 460 nm after 8 hr incubation at RT. Increase in the assay signal was linear over this period and proportional with increase in the enzyme content.
The fluorescence units were transformed to percentage of remaining activity by using the high control (HC, median of fluorescence signal from wells containing MALT1 protein, substrate, and DMSO) and low control (LC, median of fluorescence signal from wells with substrate only) with the formula below: […]
IC50 and Hill coefficient were obtained using Graph Pad Prism (Graph Pad software, Inc, USA) with non-linear regression analysis.

[2] = system: IL10 secretion, OCI-LY10 cells; assay: Human IL10 secretion assay, Assay 1 (HTRF); format: cell-based; details: 24 h incubation, read-out: IL-10 Secretion IC50 [nM] Assay 1
Summary of the method: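 OCI-LY10 cells (3×10^5/well, IMEM with 20% FBS) were treated with 3-fold serial compound dilutions from a 10 mM stock, 0.1% DMSO final, for 24 h. Secreted IL10 in medium was quantified by HTRF, normalised to DMSO-treated and no-cell controls, and IC50 (nM) derived by 4-parameter fit.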

[3] = biological target: T1, full-length MALT1 protein His-MALT1(1-824); assay: MALT1 protease assay, Assay 2 (1 nM MALT1, Ac-LRSR-AMC substrate); format: biochemical; details: 1 nM MALT1, 50 μM Ac-LRSR-AMC, 2 h pre-incubation, 8 hr incubation at RT
Summary of the method: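 His-MALT1(1-824) from baculovirus-infected insect cells at 1 nM, preincubated 2 h at RT with compound (0.1% DMSO), then 50 μM Ac-LRSR-AMC in 50 mM Tris pH 7.5, 600 mM sodium citrate, 1 mM DTT, 1 mM EDTA, 0.05% BSA. Fluorescence (ex 355/em 460 nm) after 8 h at RT, normalized to enzyme and substrate-only controls. IC50 and Hill coefficient by non-linear regression.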

T1 sequence (Q9UDY8 whole entry): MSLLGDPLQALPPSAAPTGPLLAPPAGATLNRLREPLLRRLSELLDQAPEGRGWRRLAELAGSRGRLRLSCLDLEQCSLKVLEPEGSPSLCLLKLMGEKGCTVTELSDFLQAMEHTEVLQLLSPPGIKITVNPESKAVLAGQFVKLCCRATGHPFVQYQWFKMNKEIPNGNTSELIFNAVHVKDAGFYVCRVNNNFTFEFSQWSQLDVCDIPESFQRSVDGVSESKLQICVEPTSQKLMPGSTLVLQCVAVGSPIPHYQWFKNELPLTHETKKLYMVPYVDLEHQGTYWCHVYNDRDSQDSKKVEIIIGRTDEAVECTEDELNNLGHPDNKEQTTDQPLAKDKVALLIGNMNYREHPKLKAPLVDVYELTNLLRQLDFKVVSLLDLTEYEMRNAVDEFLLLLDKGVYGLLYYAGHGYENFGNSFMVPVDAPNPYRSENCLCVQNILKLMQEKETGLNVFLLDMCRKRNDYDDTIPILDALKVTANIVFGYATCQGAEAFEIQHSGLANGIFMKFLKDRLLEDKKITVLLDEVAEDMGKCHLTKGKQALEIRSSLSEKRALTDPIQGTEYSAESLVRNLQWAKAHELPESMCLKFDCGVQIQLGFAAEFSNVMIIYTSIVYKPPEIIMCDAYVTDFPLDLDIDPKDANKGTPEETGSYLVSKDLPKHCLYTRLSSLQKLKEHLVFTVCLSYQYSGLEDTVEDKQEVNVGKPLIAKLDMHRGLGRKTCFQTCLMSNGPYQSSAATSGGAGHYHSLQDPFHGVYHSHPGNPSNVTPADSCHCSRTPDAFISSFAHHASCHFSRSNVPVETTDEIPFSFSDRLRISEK

Row | SMILES | IC50 [1] | IC50 [2] | IC50 [3]
1 | Cc1cc2ncc3c(n2n1)C(C)(C)CCN3C(=O)Nc1cnc(-n2nccn2)c(Cl)c1 [compound 8, N-(5-chloro-6-(2H-1,2,3-triazol-2-yl)pyridin-3-yl)-2,9,9-trimethyl-8,9-dihydropyrazolo[1,5-a]pyrido[2,3-e]pyrimidine-6(7H)-carboxamide] | 10 to 100 nM | 100 to 1000 nM | –
2 | CC1(C)CCN(C(=O)Nc2cnc(-n3nccn3)c(Cl)c2)c2ccc3cc(Cl)nn3c21 [compound 9, 2-chloro-N-(5-chloro-6-(2H-1,2,3-triazol-2-yl)pyridin-3-yl)-9,9-dimethyl-8,9-dihydropyrazolo[1,5-a][1,5]naphthyridine-6(7H)-carboxamide] | 10 to 100 nM | ≥ 1000 nM | –
3 | Cn1cc(-c2ncc(NC(=O)N3C[C@@](C)(C(F)(F)F)c4c3cnc3cc(Cl)nn43)cc2Cl)cn1 [compound 20, (R)-2-chloro-N-(5-chloro-6-(1-methyl-1H-pyrazol-4-yl)pyridin-3-yl)-8-methyl-8-(trifluoromethyl)-7,8-dihydro-6H-pyrazolo[1,5-a]pyrrolo[2,3-e]pyrimidine-6-carboxamide] | 10 to 100 nM | 100 to 1000 nM | –
4 | Cn1cnc(-c2ncc(NC(=O)N3C[C@@](C)(C(F)(F)F)c4c3cnc3cc(Cl)nn43)cc2Cl)c1 [compound 28, (R)-2-chloro-N-(5-chloro-6-(1-methyl-1H-imidazol-4-yl)pyridin-3-yl)-8-methyl-8-(trifluoromethyl)-7,8-dihydro-6H-pyrazolo[1,5-a]pyrrolo[2,3-e]pyrimidine-6-carboxamide] | 10 to 100 nM | – | –
5 | Cc1cc(NC(=O)N2C[C@@](C)(C(F)(F)F)c3c2cnc2cc(Cl)nn32)cnc1-n1ccnn1 [compound 30, (R)-2-chloro-8-methyl-N-(5-methyl-6-(1H-1,2,3-triazol-1-yl)pyridin-3-yl)-8-(trifluoromethyl)-7,8-dihydro-6H-pyrazolo[1,5-a]pyrrolo[2,3-e]pyrimidine-6-carboxamide] | 10 to 100 nM | – | –
6 | C[C@@]1(C(F)(F)F)CN(C(=O)NC2CCC(F)(F)CC2)c2cnc3cc(Cl)nn3c21 [compound 37, (R)-2-chloro-N-(4,4-difluorocyclohexyl)-8-methyl-8-(trifluoromethyl)-7,8-dihydro-6H-pyrazolo[1,5-a]pyrrolo[2,3-e]pyrimidine-6-carboxamide] | 100 to 1000 nM | – | 100 to 1000 nM
7 | C[C@@]1(C(F)(F)F)CN(C(=O)Nc2cnc(C#N)c(Cl)c2)c2cnc3cc(Cl)nn3c21 [compound 42, (R)-2-chloro-N-(5-chloro-6-cyanopyridin-3-yl)-8-methyl-8-(trifluoromethyl)-7,8-dihydro-6H-pyrazolo[1,5-a]pyrrolo[2,3-e]pyrimidine-6-carboxamide] | 10 to 100 nM | 100 to 1000 nM | 10 to 100 nM
8 | C[C@@]1(C(F)(F)F)CN(C(=O)Nc2cnc(CO)c(Cl)c2)c2cnc3cc(Cl)nn3c21 [compound 43, (R)-2-chloro-N-(5-chloro-6-(hydroxymethyl)pyridin-3-yl)-8-methyl-8-(trifluoromethyl)-7,8-dihydro-6H-pyrazolo[1,5-a]pyrrolo[2,3-e]pyrimidine-6-carboxamide] | 10 to 100 nM | 100 to 1000 nM | –
9 | C[C@@]1(C(F)(F)F)CN(C(=O)Nc2cc(Cl)c(=O)n(C(F)F)c2)c2cnc3cc(Cl)nn3c21 [compound 50, (R)-2-chloro-N-(5-chloro-1-(difluoromethyl)-6-oxo-1,6-dihydropyridin-3-yl)-8-methyl-8-(trifluoromethyl)-7,8-dihydro-6H-pyrazolo[1,5-a]pyrrolo[2,3-e]pyrimidine-6-carboxamide] | 10 to 100 nM | – | –
10 | CNc1ncc(NC(=O)N2C[C@@](C)(C(F)(F)F)c3c2cnc2cc(Cl)nn32)cc1Cl [compound 51, (R)-2-chloro-N-(5-chloro-6-(methylamino)pyridin-3-yl)-8-methyl-8-(trifluoromethyl)-7,8-dihydro-6H-pyrazolo[1,5-a]pyrrolo[2,3-e]pyrimidine-6-carboxamide] | 10 to 100 nM | – | –
11 | COc1nc(-n2nccn2)c(Cl)cc1NC(=O)N1C[C@@](C)(C(F)(F)F)c2c1cnc1cc(Cl)nn21 [compound 52, (R)-2-chloro-N-(5-chloro-2-methoxy-6-(2H-1,2,3-triazol-2-yl)pyridin-3-yl)-8-methyl-8-(trifluoromethyl)-7,8-dihydro-6H-pyrazolo[1,5-a]pyrrolo[2,3-e]pyrimidine-6-carboxamide] | < 10 nM | 10 to 100 nM | –
